In patent US10092570B2 (Incyte Corporation, priority 2011, dated 2018):
pIC50: −log10 of the molar value. Structures can show the parent of a compound that is named as a salt.

These compounds were tested against PI3Kδ (p110δ/p85α) (Homo sapiens (Human), UniProt O00329) (assay: Example A3: PI3Kδ scintillation proximity assay). Conditions: scintillation proximity assay, 20 μM ATP, 4 nM PI3Kδ; read-out: PI3Kδ SPA IC50.
Assay type: biochemical
Method in brief: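 p110δ/p85α (4 nM) phosphorylated 20 μM PIP2 with 20 μM ATP plus [γ-33P]ATP in MOPS pH 6.7, MgCl2, DTT, CHAPS, 0.5% DMSO, at RT. Stopped with EDTA/excess ATP, product captured on WGA SPA beads overnight and counted; IC50 from percent control activity versus log inhibitor.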

Chain of PI3Kδ (p110δ/p85α) (O00329 whole entry): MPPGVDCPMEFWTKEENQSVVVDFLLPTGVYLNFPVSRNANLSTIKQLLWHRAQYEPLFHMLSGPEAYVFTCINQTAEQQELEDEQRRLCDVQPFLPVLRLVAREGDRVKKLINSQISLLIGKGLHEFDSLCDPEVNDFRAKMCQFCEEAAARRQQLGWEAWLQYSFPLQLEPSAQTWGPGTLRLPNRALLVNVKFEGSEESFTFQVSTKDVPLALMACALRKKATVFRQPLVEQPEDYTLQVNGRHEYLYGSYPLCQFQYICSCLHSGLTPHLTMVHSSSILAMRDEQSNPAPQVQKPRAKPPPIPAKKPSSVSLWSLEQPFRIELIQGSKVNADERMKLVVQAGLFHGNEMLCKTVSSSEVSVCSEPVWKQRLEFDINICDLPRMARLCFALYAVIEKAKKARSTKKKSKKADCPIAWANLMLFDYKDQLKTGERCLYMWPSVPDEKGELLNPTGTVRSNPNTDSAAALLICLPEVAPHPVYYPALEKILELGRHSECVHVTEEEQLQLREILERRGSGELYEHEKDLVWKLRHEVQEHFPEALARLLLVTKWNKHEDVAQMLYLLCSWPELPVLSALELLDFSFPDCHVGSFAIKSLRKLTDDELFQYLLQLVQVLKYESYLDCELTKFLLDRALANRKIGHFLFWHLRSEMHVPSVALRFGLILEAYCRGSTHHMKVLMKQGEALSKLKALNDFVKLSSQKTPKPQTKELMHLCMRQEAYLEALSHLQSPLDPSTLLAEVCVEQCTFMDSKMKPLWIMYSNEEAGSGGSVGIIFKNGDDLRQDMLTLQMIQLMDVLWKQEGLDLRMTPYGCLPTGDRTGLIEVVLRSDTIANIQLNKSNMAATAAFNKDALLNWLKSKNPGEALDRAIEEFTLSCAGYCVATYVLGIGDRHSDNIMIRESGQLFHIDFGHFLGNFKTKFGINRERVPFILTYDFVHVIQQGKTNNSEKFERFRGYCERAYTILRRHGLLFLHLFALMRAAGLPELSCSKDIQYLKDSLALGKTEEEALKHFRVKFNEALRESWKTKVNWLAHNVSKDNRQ
Chain of PI3Kδ (p110δ/p85α) (P27986 whole entry partner): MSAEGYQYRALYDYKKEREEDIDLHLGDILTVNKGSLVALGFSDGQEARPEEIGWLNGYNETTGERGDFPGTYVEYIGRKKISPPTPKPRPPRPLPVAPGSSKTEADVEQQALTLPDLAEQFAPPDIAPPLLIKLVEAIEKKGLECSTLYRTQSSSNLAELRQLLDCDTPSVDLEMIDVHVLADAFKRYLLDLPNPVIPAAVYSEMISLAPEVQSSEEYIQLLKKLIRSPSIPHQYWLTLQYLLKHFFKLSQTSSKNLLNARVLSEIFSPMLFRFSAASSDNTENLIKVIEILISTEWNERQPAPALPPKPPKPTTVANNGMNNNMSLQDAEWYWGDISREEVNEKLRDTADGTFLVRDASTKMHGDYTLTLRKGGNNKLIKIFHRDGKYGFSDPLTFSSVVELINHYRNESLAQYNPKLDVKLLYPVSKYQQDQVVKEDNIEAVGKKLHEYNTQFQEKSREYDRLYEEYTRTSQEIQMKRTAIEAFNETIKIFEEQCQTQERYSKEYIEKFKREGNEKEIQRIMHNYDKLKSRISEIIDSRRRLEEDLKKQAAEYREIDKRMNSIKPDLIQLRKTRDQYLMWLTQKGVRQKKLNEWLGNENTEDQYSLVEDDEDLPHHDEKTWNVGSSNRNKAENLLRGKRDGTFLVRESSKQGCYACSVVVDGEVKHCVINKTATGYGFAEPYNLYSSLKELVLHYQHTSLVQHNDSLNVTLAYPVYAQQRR

pIC50 | SMILES
> 8.00 | CCOc1c(C(C)n2nc(-c3cnn(CCO)c3)c3c(N)ncnc32)cc(Cl)c(C)c1-c1ccc(C(=O)N(C)C)nc1 (centres unmarked) [Example 52, 5-[3-(1-{4-amino-3-[1-(2-hydroxyethyl)-1H-pyrazol-4-yl]-1H-pyrazolo[3,4-d]pyrimidin-1-yl}ethyl)-5-chloro-2-ethoxy-6-methylphenyl]-N,N-dimethylpyridine-2-carboxamide bis(trifluoroacetate)]
> 8.00 | CCOc1c(C(C)n2nc(-c3cncc(C#N)c3)c3c(N)ncnc32)cc(Cl)c(C)c1-c1ccc(C(=O)N(C)C)nc1 (centres unmarked) [Example 57, 5-(3-{1-[4-amino-3-(5-cyanopyridin-3-yl)-1H-pyrazolo[3,4-d]pyrimidin-1-yl]ethyl}-5-chloro-2-ethoxy-6-methylphenyl)-N,N-dimethylpyridine-2-carboxamide tris(trifluoroacetate)]
> 8.00 | COc1c(C(C)n2nc(C)c3c(N)ncnc32)cc(Cl)c(F)c1C1CN(C[C@@H](C)O)C1 (stereo partly drawn) [Example 69, (2R)-1-(3-{3-[1-(4-Amino-3-methyl-1H-pyrazolo[3,4-d]pyrimidin-1-yl)ethyl]-5-cyloro-6-fluoro-2-methoxyphenyl}azetidin-1-yl)propan-2-ol]
> 8.00 | COc1c(C(C)n2nc(C)c3c(N)ncnc32)cc(Cl)c(F)c1C1CN(C)C1 (centres unmarked) [Example 72]
> 8.00 | COc1c(C(C)n2nc(C(F)F)c3c(N)ncnc32)cc(Cl)c(F)c1C1CN(C(C)C)C1 (centres unmarked) [Example 73, 1-{1-[5-Chloro-4-fluoro-3-(1-isopropylazetidin-3-yl)-2-methoxyphenyl]ethyl}-3-(difluoromethyl)-1H-pyrazolo[3,4-d]pyrimidin-4-amine]
> 8.00 | COc1c(C(C)n2nc(C(F)F)c3c(N)ncnc32)cc(Cl)c(F)c1C1CN(CCO)C1 (centres unmarked) [Example 74, 2-[3-(3-{1-[4-Amino-3-(difluoromethyl)-1H-pyrazolo[3,4-d]pyrimidin-1-yl]ethyl}-5-chloro-6-fluoro-2-methoxyphenyl)azetidin-1-yl]ethanol]
> 8.00 | COc1c(C(C)n2nc(C(F)F)c3c(N)ncnc32)cc(Cl)c(F)c1C1CN(C[C@H](C)O)C1 (stereo partly drawn) [Example 76, (2S)-1-[3-(3-{1-[4-amino-3-(difluoromethyl)-1H-pyrazolo[3,4-d]pyrimidin-1-yl]ethyl}-5-chloro-6-fluoro-2-methoxyphenyl)azetidin-1-yl]propan-2-ol]
> 8.00 | COc1c(C(C)n2nc(C(F)F)c3c(N)ncnc32)cc(C#N)c(F)c1C1CN(C[C@H](C)O)C1 (stereo partly drawn) [Example 77, 5-(1-(4-Amino-3-(difluoromethyl)-1H-pyrazolo[3,4-d]pyrimidin-1-yl)ethyl)-2-fluoro-3-(1-((S)-2-hydroxypropyl)azetidin-3-yl)-4-methoxybenzonitrile]
> 8.00 | CCOc1c(C(C)n2nc(C#C[C@@H](C)O)c3c(N)ncnc32)cc(Cl)c(C)c1-c1ccc(C(=O)N(C)C)nc1 (stereo partly drawn) [Example 79, 5-[3-(1-{4-Amino-3-[(3R)-3-hydroxybut-1-yn-1-yl]-1H-pyrazolo[3,4-d]pyrimidin-1-yl}ethyl)-5-chloro-2-ethoxy-6-methylphenyl]-N,N-dimethylpyridine-2-carboxamide bis(trifluoroacetate)]
> 8.00 | CCOc1c(C(C)n2nc(C#C[C@H](C)O)c3c(N)ncnc32)cc(Cl)c(C)c1-c1ccc(C(=O)N(C)C)nc1 (stereo partly drawn) [Example 80, 5-[3-(1-{4-Amino-3-[(3S)-3-hydroxybut-1-yn-1-yl]-1H-pyrazolo[3,4-d]pyrimidin-1-yl}ethyl)-5-chloro-2-ethoxy-6-methylphenyl]-N,N-dimethylpyridine-2-carboxamide bis(trifluoroacetate)]
> 8.00 | CCOc1c(C(C)n2nc(C)c3c(N)ncnc32)cc(Cl)c(C)c1C1CN(C(C)C)C1 (centres unmarked) [Example 94, 1-{1-[5-Chloro-2-ethoxy-3-(1-isopropylazetidin-3-yl)-4-methylphenyl]ethyl}-3-methyl-1H-pyrazolo[3,4-d]pyrimidin-4-amine bis(trifluoroacetate)]
> 8.00 | CCOc1c(C(C)n2nc(C)c3c(N)ncnc32)cc(Cl)c(C)c1C1CN(C[C@@H](C)O)C1 (stereo partly drawn) [Example 97, (2R)-1-(3-{3-[1-(4-Amino-3-methyl-1H-pyrazolo[3,4-d]pyrimidin-1-yl)ethyl]-5-chloro-2-ethoxy-6-methylphenyl}azetidin-1-yl)propan-2-ol]
> 8.00 | CCOc1c(C(C)n2nc(C)c3c(N)ncnc32)cc(Cl)c(C)c1C1CN(C(=O)[C@H](C)O)C1 (stereo partly drawn) [Example 99, (2S)-1-(3-{3-[1-(4-Amino-3-methyl-1H-pyrazolo[3,4-d]pyrimidin-1-yl)ethyl]-5-chloro-2-ethoxy-6-methylphenyl}azetidin-1-yl)-1-oxopropan-2-ol trifluoroacetate]
> 8.00 | CCOc1c(C(C)n2nc(C)c3c(N)ncnc32)cc(Cl)c(C)c1C1CN(C(=O)[C@@H](C)O)C1 (stereo partly drawn) [Example 100, (2R)-1-(3-{3-[1-(4-Amino-3-methyl-1H-pyrazolo[3,4-d]pyrimidin-1-yl)ethyl]-5-chloro-2-ethoxy-6-methylphenyl}azetidin-1-yl)-1-oxopropan-2-ol]
> 8.00 | CCOc1c(C(C)n2nc(C)c3c(N)ncnc32)cc(Cl)c(C)c1C1CN(C(=O)c2cnn(C)c2)C1 (centres unmarked) [Example 101, 1-[1-(5-Chloro-2-ethoxy-4-methyl-3-{1-[(1-methyl-1H-pyrazol-4-yl)carbonyl]azetidin-3-yl}phenyl)ethyl]-3-methyl-1H-pyrazolo[3,4-d]pyrimidin-4-amine trifluoroacetate]
> 8.00 | COc1c(C(C)n2nc(C)c3c(N)ncnc32)cc(Cl)c(C)c1C1CN(C(C)C#N)C1 (centres unmarked) [Example 106, 2-(3-{3-[1-(4-Amino-3-methyl-1H-pyrazolo[3,4-d]pyrimidin-1-yl)ethyl]-5-chloro-2-methoxy-6-methylphenyl}azetidin-1-yl)propanenitrile]
> 8.00 | COc1c(C(C)n2nc(C)c3c(N)ncnc32)cc(Cl)c(C)c1C1CN(C2CCOC2)C1 (centres unmarked) [Example 107, 1-(1-{5-Chloro-2-methoxy-4-methyl-3-[1-(tetrahydrofuran-3-yl)azetidin-3-yl]phenyl}ethyl)-3-methyl-1H-pyrazolo[3,4-d]pyrimidin-4-amine]
> 8.00 | CNC(=O)[C@@H](C)N1CC(c2c(C)c(Cl)cc(C(C)n3nc(C)c4c(N)ncnc43)c2OC)C1 (stereo partly drawn) [Example 110, (2R)-2-(3-{3-[1-(4-Amino-3-methyl-1H-pyrazolo[3,4-d]pyrimidin-1-yl)ethyl]-5-chloro-2-methoxy-6-methylphenyl}azetidin-1-yl)-N-methylpropanamide trifluoroacetate]
> 8.00 | COc1c(C(C)n2nc(C)c3c(N)ncnc32)cc(Cl)c(C)c1C1CN(C(CO)C(F)(F)F)C1 (centres unmarked) [Example 113, 2-(3-{3-[1-(4-Amino-3-methyl-1H-pyrazolo[3,4-d]pyrimidin-1-yl)ethyl]-5-chloro-2-methoxy-6-methylphenyl}azetidin-1-yl)-3,3,3-trifluoropropan-1-ol]
> 8.00 | COc1c(C(C)n2nc(-c3cn[nH]c3)c3c(N)ncnc32)cc(Cl)c(C)c1C1CN(CC#N)C1 (centres unmarked) [Example 126, [3-(3-{1-[4-Amino-3-(1H-pyrazol-4-yl)-1H-pyrazolo[3,4-d]pyrimidin-1-yl]ethyl}-5-chloro-2-methoxy-6-methylphenyl)azetidin-1-yl]acetonitrile]
